Our source for the ID95, IC50 and Activity values is ChEMBL document CHEMBL1158657, “Improved antitumor activity by modification of nogalamycin” (1979).

Holding throughout (assay type): functional
Experiment [1] concerns L1210. Kind of experiment: Cytotoxicity against mouse L1210 cells. Particulars: for IC50: Mus musculus.
Experiment [2] deals with P388. Kind of experiment: Antitumor activity against mouse P388 cells xenografted in mouse assessed as increase in life span at 50 mg/kg/day, ip after 9 days. The note with it: route intraperitoneal.
Experiment [3] relates to P388. Briefly: Antitumor activity against mouse P388 cells xenografted in mouse assessed as increase in life span at 12.5 mg/kg/day, ip after 9 days. Particulars: route intraperitoneal.
Experiment [4] deals with L1210. Briefly: Inhibition of DNA synthesis in mouse L1210 cells. Particulars: read-out: ID50 (the source's name).
In experiment [5] the test system is B16. Briefly: Antitumor activity against mouse B16 cells xenografted in mouse assessed as increase in life span at 10 mg/kg/day, ip after 9 days. The note with it: route intraperitoneal.
Experiment [6] has as its system L1210. Kind of experiment: Inhibition of RNA synthesis in mouse L1210 cells. Particulars: read-out: ID50 (the source's name).
Experiment [7] relates to P388. Briefly: Antitumor activity against mouse P388 cells xenografted in mouse assessed as increase in life span at 25 mg/kg/day, ip after 9 days. Particulars: route intraperitoneal.
The test system of experiment [8] is B16. Kind of experiment: Antitumor activity against mouse B16 cells xenografted in mouse assessed as increase in life span at 12 mg/kg/day, ip after 9 days. The note with it: route intraperitoneal.
Experiment [9] deals with P388. Briefly: Antitumor activity against mouse P388 cells xenografted in mouse assessed as increase in life span at 5 mg/kg/day, ip after 9 days. The note with it: route intraperitoneal.
Experiment [10] concerns P388. Kind of experiment: Antitumor activity against mouse P388 cells xenografted in mouse assessed as increase in life span at 10 mg/kg/day, ip after 9 days. The note with it: route intraperitoneal.
Experiment [11] relates to P388. Kind of experiment: Antitumor activity against mouse P388 cells xenografted in mouse assessed as increase in life span at 8 mg/kg/day, ip after 9 days. Particulars: route intraperitoneal.
[12] abbreviates: L1210, read-out: ID50 (the source's name).

`COC(=O)[C@@H]1c2cc3c(c(O)c2CC[C@]1(C)O)C(=O)c1c(O)cc2c(c1C3=O)O[C@@H]1O[C@@]2(C)[C@H](O)[C@@H](N(C)C)[C@@H]1O` gave an ID95 in the experiment on L1210 [1] of 1510 nM. The IC50 with L1210 [1] (setting [12]) is 580 nM. Also, the Activity in the experiment on P388 [2] was 27%.

Turning to `Cc1ccc2c(O)c3c(cc2c1)C(=O)c1c2c(cc(O)c1C3=O)[C@@]1(C)O[C@@H](O2)[C@@H](O)[C@H](N(C)C)[C@H]1O` [NOGARENE], the ID95 in the experiment with L1210 [1] came to 370 nM. The IC50 in the experiment on L1210 [1] (setting [12]) stood at 220 nM. Also, in the experiment on P388 [3], the Activity is 17%.

With `COC(=O)[C@@H]1c2cc3c(c(O)c2[C@@H](OC)C[C@@]1(C)O)C(=O)c1c(O)cc2c(c1C3=O)O[C@@H]1O[C@@]2(C)[C@H](O)[C@@H](N(C)C)[C@@H]1O`, the IC50 was 0.13 µg/mL in the experiment on L1210 [1] (L1210, read-out: ID50); 7000 nM in the experiment on L1210 [4]; 7800 nM with L1210 [6]. For the same molecule, the Activity in the experiment with B16 [5] came to 35%; in the experiment on P388 [7] it was 98%.

Turning to `CCCO[C@H]1C[C@](C)(O)[C@H](C(=O)OC)c2cc3c(c(O)c21)C(=O)c1c(O)cc2c(c1C3=O)O[C@@H]1O[C@@]2(C)[C@H](O)[C@@H](N(C)C)[C@@H]1O`, the IC50 in the experiment on L1210 [1] (L1210, read-out: ID50) stood at 0.16 µg/mL.

`CCO[C@H]1C[C@](C)(O)[C@H](C(=O)OC)c2cc3c(c(O)c21)C(=O)c1c(O)cc2c(c1C3=O)O[C@@H]1O[C@@]2(C)[C@H](O)[C@@H](N(C)C)[C@@H]1O`: the IC50 in the experiment with L1210 [1] (L1210, read-out: ID50) came out at 0.16 µg/mL.

For `CN[C@H]1C[C@](C)(O)[C@H](C(=O)OC)c2cc3c(c(O)c21)C(=O)c1c(O)cc2c(c1C3=O)O[C@@H]1O[C@@]2(C)[C@H](O)[C@@H](N(C)C)[C@@H]1O`, in the experiment on P388 [7], the Activity is recorded as 58%.

For `CCN(CC)[C@H]1C[C@](C)(O)[C@H](C(=O)OC)c2cc3c(c(O)c21)C(=O)c1c(O)cc2c(c1C3=O)O[C@@H]1O[C@@]2(C)[C@H](O)[C@@H](N(C)C)[C@@H]1O`, the Activity in the experiment with P388 [7] is 38%.

Consider `CCO[C@H]1C[C@](C)(O)Cc2cc3c(c(O)c21)C(=O)c1c(O)cc2c(c1C3=O)O[C@@H]1O[C@@]2(C)[C@H](O)[C@@H](N(C)C)[C@@H]1O`, for which, in the experiment with B16 [8], the Activity turned out to be 34%. Moreover, the IC50 with L1210 [1] (L1210, read-out: ID50) was 0.43 µg/mL; in the experiment on L1210 [4], 3200 nM; in the experiment with L1210 [6] it was 800 nM.

For the molecule `COC(=O)[C@@H]1c2cc3c(c(O)c2[C@@H](N=[N+]=[N-])C[C@]1(C)O)C(=O)c1c(O)cc2c(c1C3=O)O[C@@H]1O[C@@]2(C)[C@H](O)[C@@H](N(C)C)[C@@H]1O`, the Activity in the experiment with P388 [9] is 33%.

Consider `CCN[C@H]1C[C@](C)(O)[C@H](C(=O)OC)c2cc3c(c(O)c21)C(=O)c1c(O)cc2c(c1C3=O)O[C@@H]1O[C@@]2(C)[C@H](O)[C@@H](N(C)C)[C@@H]1O`, for which, in the experiment on P388 [7], the Activity is 55%.

As to `COC(=O)[C@@H]1c2cc3c(c(O)c2[C@@H](OC(C)=O)C[C@]1(C)O)C(=O)c1c(O)cc2c(c1C3=O)O[C@@H]1O[C@@]2(C)[C@H](O)[C@@H](N(C)C)[C@@H]1O`, the Activity with P388 [10] is on record as 87%.

`CCCO[C@H]1C[C@@](C)(O)[C@H](C(=O)OC)c2cc3c(c(O)c21)C(=O)c1c(O)cc2c(c1C3=O)O[C@@H]1O[C@@]2(C)[C@H](O)[C@@H](N(C)C)[C@@H]1O`: the IC50 with L1210 [1] (L1210, read-out: ID50) is 0.3 µg/mL.

With `COC(=O)[C@@H]1c2cc3c(c(O)c2[C@@H](SC)C[C@]1(C)O)C(=O)c1c(O)cc2c(c1C3=O)O[C@@H]1O[C@@]2(C)[C@H](O)[C@@H](N(C)C)[C@@H]1O`, in the experiment with P388 [11], the Activity was found to be 37%.

For `CCO[C@H]1C[C@@](C)(O)[C@H](C(=O)OC)c2cc3c(c(O)c21)C(=O)c1c(O)cc2c(c1C3=O)O[C@@H]1O[C@@]2(C)[C@H](O)[C@@H](N(C)C)[C@@H]1O`, the IC50 in the experiment with L1210 [1] (L1210, read-out: ID50) was determined as 0.15 µg/mL. For the same molecule, the Activity with P388 [3] stood at 70%.

`COC(=O)[C@@H]1c2cc3c(c(O)c2[C@@H](N(C)C)C[C@]1(C)O)C(=O)c1c(O)cc2c(c1C3=O)O[C@@H]1O[C@@]2(C)[C@H](O)[C@@H](N(C)C)[C@@H]1O`: the Activity in the experiment on P388 [2] worked out at 54%.
